The source of these data is BindingDB's records for doi:10.1007/bf00965909 (Biological Research Center of Hungarian Academy of Sciences, 1990).

In general, Ki refers to the dissociation constant of the complex between target and ligand, obtained from inhibition or displacement. Higher therefore signals a looser hold on the target.

Where “and” joins values, the source holds several entries; their conditions need not be identical. Identical values can stand only once.

Test [1] concerns the target kappa-type opioid receptor isoform 1 (Xenopus tropicalis, UniProt F7A0F2).
In test [2] the target is Kappa-type opioid receptor (Rattus norvegicus, UniProt P34975).
Chain of Kappa-type opioid receptor (P34975 whole entry): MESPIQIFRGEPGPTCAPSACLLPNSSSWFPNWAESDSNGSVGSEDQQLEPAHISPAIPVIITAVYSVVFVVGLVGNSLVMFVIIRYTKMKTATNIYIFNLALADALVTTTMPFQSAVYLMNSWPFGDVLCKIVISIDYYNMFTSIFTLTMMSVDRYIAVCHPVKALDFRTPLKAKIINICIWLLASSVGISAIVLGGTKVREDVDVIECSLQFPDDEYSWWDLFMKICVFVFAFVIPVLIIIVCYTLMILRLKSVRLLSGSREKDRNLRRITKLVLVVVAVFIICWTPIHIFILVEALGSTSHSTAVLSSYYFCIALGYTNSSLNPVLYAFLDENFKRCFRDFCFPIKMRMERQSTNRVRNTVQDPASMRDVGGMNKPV

Chain of kappa-type opioid receptor isoform 1 (F7A0F2 whole entry, canonical isoform): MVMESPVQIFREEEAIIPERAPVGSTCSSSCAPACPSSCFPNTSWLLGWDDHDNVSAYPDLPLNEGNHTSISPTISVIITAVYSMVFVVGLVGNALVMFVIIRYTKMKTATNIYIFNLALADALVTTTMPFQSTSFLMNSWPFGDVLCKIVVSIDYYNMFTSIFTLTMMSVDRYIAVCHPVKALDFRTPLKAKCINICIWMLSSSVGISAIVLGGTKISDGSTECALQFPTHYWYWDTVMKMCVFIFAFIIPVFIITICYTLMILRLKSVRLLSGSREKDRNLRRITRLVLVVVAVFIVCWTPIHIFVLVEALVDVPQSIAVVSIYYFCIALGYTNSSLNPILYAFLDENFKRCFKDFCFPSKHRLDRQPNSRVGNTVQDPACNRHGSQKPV

In the case of `CC[C@H](C)[C@H](NC(=O)[C@H](CCCNC(=N)N)NC(=O)[C@H](CCCNC(=N)N)NC(=O)[C@H](CC(C)C)NC(=O)[C@H](Cc1ccccc1)NC(=O)CNC(=O)CNC(=O)[C@@H](N)Cc1ccc(O)cc1)C(=O)N[C@@H](CCCNC(=N)N)C(=O)N1CCC[C@H]1C(=O)N[C@@H](CCCCN)C(=O)N[C@@H](CC(C)C)C(=O)N[C@@H](CCCCN)C(=O)O` [Dynorphin A (1-13)], the Ki in test [1] is 12 nM and 3.1 nM; in test [2], 57 nM. “H-YGGFMTSEKSQTPLVTLFKNAIVKNAHKKGQ-OH [Beta-Endorphin]”: the Ki in test [2] amounted to 2.3 nM. Turning to `[N-]=[N+]=N[C@@H]1CC[C@H]2[C@H]3Cc4ccc(O)c5c4[C@@]2(CCN3CC2CC2)[C@@H]1O5` [N-cyclopropylmethylnorazidomorphine], the Ki was 0.1 nM in test [1]; 0.1 nM and 0.2 nM and 0.3 nM in test [2]. `CC1[C@H]2Cc3ccc(O)cc3[C@]1(C)CCN2C[C@H]1CCCO1` (stereo partly drawn) [CAS_57236-85-8]: in test [1], the Ki is 4.8 nM. That is a single-digit nanomolar value. The same measure, in the same setting: to `CC1[C@H]2Cc3ccc(O)cc3[C@]1(C)CCN2C[C@@H]1CCCO1` (stereo partly drawn) [(+)-alpha-(1R,5R,9R)-5,9-Dimethyl-2-L-tetrahydrofurfuryl)-2'-hydroxy-6,7-benzomorphan] belongs 5400 nM; to `C[C@@H](NC(=O)[C@@H](N)Cc1ccc(O)cc1)C(=O)NCC(=O)N(C)[C@@H](Cc1ccccc1)C(=O)NCCO` [[tyrosyl-3,5-3H(N)]-D-Ala2-Mephe4-glyol5-enkephalin], 59 nM and 360 nM and 470 nM.
